Reference: the CombiSolv-Exp solvation set (Vermeire and Green 2021)

Assay: solvent given as SMILES

SMILES: CCCCC(C)C
- solvation free energy, 298 K (in C=CCCCCCCCCCCCCCC): -3.96 kcal/mol
- solvation free energy, 298 K (in CC#N): -2.99 kcal/mol
- solvation free energy, 298 K (in O): 2.93 kcal/mol

SMILES: OC1CCCCCC1
- solvation free energy, 298 K (in O): -5.48 kcal/mol

SMILES: C=C(C)C1CC=C(C=O)CC1 (stereo unspecified)
- solvation free energy, 298 K (in O): -4.09 kcal/mol

SMILES: CCCC1CCCC1
- solvation free energy, 298 K (in O): 2.13 kcal/mol

SMILES: C=CC(C)(O)CCC=C(C)C (stereo unspecified)
- solvation free energy, 298 K (in O): -4.17 kcal/mol

SMILES: CCCOCCC
- solvation free energy, 298 K (in C=CCCCCCCCCCCCCCC): -4 kcal/mol
- solvation free energy, 298 K (in CC(C)(C)O): -4.13 kcal/mol
- solvation free energy, 298 K (in CC(C)CO): -4.17 kcal/mol
- solvation free energy, 298 K (in CC(C)O): -4.02 kcal/mol
- solvation free energy, 298 K (in CCC(C)=O): -4.37 kcal/mol
- solvation free energy, 298 K (in CCC(C)O): -4.15 kcal/mol
- solvation free energy, 298 K (in CCCCCCCCCCCCCCCC): -4.02 kcal/mol
- solvation free energy, 298 K (in CCCCCCCCO): -4.05 kcal/mol
- solvation free energy, 298 K (in CCCCCCO): -4.12 kcal/mol
- solvation free energy, 298 K (in CCCCCl): -4.68 kcal/mol
- solvation free energy, 298 K (in CCCCO): -4.13 kcal/mol
- solvation free energy, 298 K (in CN(C)C=O): -3.62 kcal/mol
- solvation free energy, 298 K (in CO): -3.94 kcal/mol
- solvation free energy, 298 K (in ClC(Cl)(Cl)Cl): -4.83 kcal/mol
- solvation free energy, 298 K (in ClCCl): -5.02 kcal/mol
- solvation free energy, 298 K (in O): -1.23 kcal/mol
- solvation free energy, 298 K (in [2H]O[2H]): -1.37 kcal/mol

SMILES: Clc1ccc(Cl)c(-c2cc(Cl)ccc2Cl)c1
- solvation free energy, 298 K (in CCCCCCCCO): -11.2 kcal/mol
- solvation free energy, 298 K (in O): -2.55 kcal/mol

SMILES: CC12CCC(=O)C=C1CCC1C2C(O)CC2(C)C1CCC2(O)C(=O)CO (stereo unspecified)
- solvation free energy, 298 K (in C=CCCCCCCC=C): -21.7 kcal/mol
- solvation free energy, 298 K (in C=CCCCCCCCCCCCCCC): -20.9 kcal/mol
- solvation free energy, 298 K (in O): -25.4 kcal/mol

SMILES: Cc1nc(N(C)C)nc(OC(=O)N(C)C)c1C
- solvation free energy, 298 K (in O): -9.41 kcal/mol

SMILES: FC(F)=CCl
- solvation free energy, 298 K (in CCCCCCCC(=O)OCC(COC(=O)CCCCCCC)OC(=O)CCCCCCC): -1.77 kcal/mol
- solvation free energy, 298 K (in CCCCCCCCO): -1.69 kcal/mol
- solvation free energy, 298 K (in CN1CCCC1=O): -2.26 kcal/mol
- solvation free energy, 298 K (in CN(C)C=O): -1.99 kcal/mol
- solvation free energy, 298 K (in O): 0.52 kcal/mol

SMILES: C#CC
- solvation free energy, 298 K (in C1CCC2CCCCC2C1): -1.49 kcal/mol
- solvation free energy, 298 K (in C1COCCO1): -2.46 kcal/mol
- solvation free energy, 298 K (in CC1COC(=O)O1): -2.04 kcal/mol
- solvation free energy, 298 K (in CC(C)=O): -2.48 kcal/mol
- solvation free energy, 298 K (in CC(C)CC(C)(C)C): -1.66 kcal/mol
- solvation free energy, 298 K (in CCCCCCCCCCCCCCCC): -1.4 kcal/mol
- solvation free energy, 298 K (in CN1CCCC1=O): -2.47 kcal/mol
- solvation free energy, 298 K (in CN(C)C=O): -2.49 kcal/mol
- solvation free energy, 298 K (in CN(C)P(=O)(N(C)C)N(C)C): -2.6 kcal/mol
- solvation free energy, 298 K (in COC(C)=O): -2.51 kcal/mol
- solvation free energy, 298 K (in COCCOCCOCCOC): -2.03 kcal/mol
- solvation free energy, 298 K (in CS(C)=O): -2.14 kcal/mol
- solvation free energy, 298 K (in Nc1ccccc1): -2.01 kcal/mol
- solvation free energy, 298 K (in O): -0.48 kcal/mol
- solvation free energy, 298 K (in OCCCOCCCO): -1.53 kcal/mol
- solvation free energy, 298 K (in OCCO): -1.22 kcal/mol
- solvation free energy, 298 K (in OCc1ccccc1): -1.77 kcal/mol

SMILES: CC1=CCC2C3C1C2(C)CCCC3(C)C (stereo unspecified)
- solvation free energy, 298 K (in O): 0.29 kcal/mol

SMILES: CN(Cc1ccccc1)N=O
- solvation free energy, 298 K (in O): -7.03 kcal/mol

SMILES: CCC(C)C
- solvation free energy, 298 K (in C1=Cc2ccccc2C1): -2.54 kcal/mol
- solvation free energy, 298 K (in C=CCCCCCCCCCCCCCC): -2.66 kcal/mol
- solvation free energy, 298 K (in CC#N): -1.9 kcal/mol
- solvation free energy, 298 K (in CC(=O)N(C)C): -1.98 kcal/mol
- solvation free energy, 298 K (in CC(C)(C)O): -2.56 kcal/mol
- solvation free energy, 298 K (in CCCCCCCCCCCCCCCC): -2.76 kcal/mol
- solvation free energy, 298 K (in CCCCCCCCCOC(=O)c1ccccc1C(=O)OCCCCCCCCC): -2.36 kcal/mol
- solvation free energy, 298 K (in CCNC(C)=O): -2.22 kcal/mol
- solvation free energy, 298 K (in CN1CCCC1=O): -1.8 kcal/mol
- solvation free energy, 298 K (in CN1CCCCC1=O): -2.01 kcal/mol
- solvation free energy, 298 K (in CN(C)C=O): -1.9 kcal/mol
- solvation free energy, 298 K (in CN(C)P(=O)(N(C)C)N(C)C): -2 kcal/mol
- solvation free energy, 298 K (in CNC(C)=O): -2.03 kcal/mol
- solvation free energy, 298 K (in CNC=O): -1.57 kcal/mol
- solvation free energy, 298 K (in ClC(Cl)C(Cl)Cl): -2.38 kcal/mol
- solvation free energy, 298 K (in Clc1cccc2ccccc12): -2.24 kcal/mol
- solvation free energy, 298 K (in Ic1ccccc1): -2.37 kcal/mol
- solvation free energy, 298 K (in N#CCCCCC#N): -1.06 kcal/mol
- solvation free energy, 298 K (in N#CCc1ccccc1): -1.78 kcal/mol
- solvation free energy, 298 K (in N#Cc1ccccc1): -2.21 kcal/mol
- solvation free energy, 298 K (in O): 2.39 kcal/mol
- solvation free energy, 298 K (in O=C1CCCCC1): -2.58 kcal/mol

SMILES: CCCCC(C)O (stereo unspecified)
- solvation free energy, 298 K (in O): -4.28 kcal/mol

SMILES: CC1=CCC(C(C)C)c2cc(C)ccc21 (stereo unspecified)
- solvation free energy, 298 K (in O): -1.12 kcal/mol

SMILES: CCOC(=O)c1ccc(N)cc1
- solvation free energy, 298 K (in CC(C)CCO): -11.1 kcal/mol
- solvation free energy, 298 K (in CCCC(C)O): -11.2 kcal/mol

SMILES: COC(C)(OC)OC
- solvation free energy, 298 K (in O): -4.42 kcal/mol

SMILES: Cc1ccccc1Cl
- solvation free energy, 298 K (in O): -1.14 kcal/mol

SMILES: CC1=CCC2CC1C2(C)C (stereo unspecified)
- solvation free energy, 298 K (in O): 0.97 kcal/mol

SMILES: Cn1c(=O)c2c(ncn2C)n(C)c1=O
- solvation free energy, 298 K (in O): -12.6 kcal/mol

SMILES: CCCCCC#N
- solvation free energy, 298 K (in CCCCCCCCCCCCCCCC): -4.68 kcal/mol
- solvation free energy, 298 K (in CCCCCCCCO): -5.54 kcal/mol
- solvation free energy, 298 K (in O): -3.28 kcal/mol
- solvation free energy, 298 K (in [2H]O[2H]): -3.25 kcal/mol

SMILES: C=CCCCCCCC
- solvation free energy, 298 K (in CCCCCCCCO): -5.21 kcal/mol
- solvation free energy, 298 K (in O): 2.06 kcal/mol

SMILES: CCC(C)Br (stereo unspecified)
- solvation free energy, 298 K (in C=CCCCCCCCCCCCCCC): -3.96 kcal/mol
- solvation free energy, 298 K (in O): -0.27 kcal/mol

SMILES: CC(C)Nc1nc(Cl)nc(NC(C)C)n1
- solvation free energy, 298 K (in O): -9.55 kcal/mol

SMILES: Clc1cc(Cl)c(-c2cc(Cl)ccc2Cl)c(Cl)c1
- solvation free energy, 298 K (in O): -2.25 kcal/mol

SMILES: FC(F)C(F)Oc1ccccc1 (stereo unspecified)
- solvation free energy, 298 K (in O): -1.29 kcal/mol

SMILES: O=C1CCCCC1
- solvation free energy, 298 K (in CCCCCC): -4.98 kcal/mol
- solvation free energy, 298 K (in CCCCCCC): -5.18 kcal/mol
- solvation free energy, 298 K (in CCCCCCCCCCCCCCCC): -4.97 kcal/mol
- solvation free energy, 298 K (in ClC(Cl)(Cl)Cl): -6.23 kcal/mol
- solvation free energy, 298 K (in ClCCCl): -6.78 kcal/mol
- solvation free energy, 298 K (in O): -4.91 kcal/mol
